Data from patent US10130830B2, “Preservative systems comprising cationic surfactants” (Laboratorios Miret, S.A., priority 2005, dated 2018).

Assays:
aerobic total count [1] = assay: Preservative action in bratwurst sausage, aerobic total count; format: cell-based; settings: Example 11, bratwurst sausage, LAE 0.2 g/kg
Method: (3) Determination of Preservative Action in Bratwurst Sausage.
The ingredients for all samples were : minced pork back, underbelly, spices, salt and additives (milk protein, diphosphate, antioxidant (E-300) and flavour enhance (E-621)).
1. On the cutter the minced pork back meat was ground and the ingredients were added in this order: the additives (except the preservative system), the underbelly, the spices and the preservative system (such as the cationic surfactant alone or in combination with other products). Ice was also added for controlling the temperature (maximum 5° C.) of the meat. The mixing time was 12 minutes.
2. The mass was vacuum mixed (92%) for 1 minute.
3. The mixture was stuffed into natural casings. The casings were previously soaked in a salted water solution for 30 minutes.
4. The bratwurst sausages were put in a cooking trolley. Cooking took place in a oven at 80° C. for 1 hour.
5. After cooking, the bratwurst sausages were sprayed with cool water for 5 minutes and put in a cold-storage room (0-5° C., 24 hours).
6. The next day, bratwurst sausages were packed (each packed contained five sausages) and pasteurised at 80° C. for 30 minutes and then. After, they were soaked in cool water for 30 minutes.
7. Finally, the bratwurst sausages were labelled and stored at 5° C. for 90 days.
Samples were analysed (aerobic total count) for up to 90 days. Aerobic total count was analysed by stomaching 25 g of sausage in 225 g of buffered peptone water. Dilutions were made in buffered peptone water. Tryptone Soya Agar was harvested with each dilution and incubated at 35° C. for 48 hours.
Average values in log cfu/g of three samples per treatment and day of analysis were calculated.

aerobic total count [2] = assay: Preservative action in soaked chickpeas, aerobic total count; format: cell-based; settings: Example 13, soaked chickpeas, LAE 0.2 g/kg in soaking water, mean of triplicate
Method: (4) Determination of Preservative Action in Soaked Chick-peas.
Chickpeas are the principal ingredients in a lot of ready-to-eat meals. Before cooking them, chickpeas have to be soaked in water at room temperature for 24 hours. During this period, fermentation processes may occur and therefore, chickpeas would not be suitable for eating. The soaking process cannot be made at refrigeration temperatures, because the structure of the chickpeas could be damaged.
• 1. Chickpeas were soaked in water for 24 hours at 30° C. and 50% HR (in treated samples preservative was added at this point); and • 2. after 24 hours the chickpeas were strained. Analysis • Samples were analysed (aerobic total count and concentration of the cationic surfactant) by triplicate for 24 hours. • Aerobic total count was analysed by stomaching 25 g of chickpeas in 225 g of buffered peptone water. Dilutions were made in buffered peptone water. Tryptone Soya Agar was harvested with each dilution and incubated at 35° C. for 48 hours. • Average values in log cfu/g of three samples per treatment and day of analysis were calculated. • LAE was analysed by HPLC using an internally validated method.

Aerobes = assay: Preservative action in cosmetic products (Antimicrobial Effectiveness Testing USP 24th Edition), aerobes; format: cell-based
From the text: (§1) (1) Determination of Preservative Action in Cosmetic Products. […] This assay consists of the contamination of the protecting formulations with an inoculum mixture of 10^8 cfu/ml concentration, for each of the micro-organisms, and the determination of the number of viable cells in time. This inoculum mixture is composed of the following microorganisms: [table] The cosmetic composition to be analysed is divided into sterile containers with 50 g of product for each flask. Each container is inoculated with 0.5 ml of inoculum (10^8 cfu/ml). The target concentration is 10^6 cfu/ml, approximately. All the containers are kept at a temperature between 20-25° C. and are protected from light. The level of the microbial contamination is checked at 0 hours, 7 days, 14 days and 28 days. The number of colonies is evaluated by dilution in buffer peptone with the appropriate neutraliser agent of the preservative. The culture media used for counting the microorganisms are: […] (2) Determination of Preservative Action in Chicken Breast. Process of Preparation • 1. Fresh chicken breast was diced to pieces • 2. Brine (8.70% sodium chloride and 4.35% tripolyphosphate in water) was added to the fresh chicken in an amount of 11.5 g brine per 88.5 g meat in the control preparation and 11.5 g brine and 88.4 g meat in the preparations treated with preservative. • 3. Brine and meat were mixed during 15 minutes, in the preparations treated with preservative the preservative was added after 14 minutes in an amount of 0.2 g/kg. • 4. Vacuum refrigerate tumbling was made during 30 minutes. • 5. Samples were vacuum-packed in sterile bags and they were cooked at 85° C. for 30 minutes. • 6. The cooked chicken was refrigerated at 4° C. • 7. The cooked chicken was diced in irregular shapes. • 8. Then, the nuggets were stored at 10° C. in sterile vacuum-packed bags. Analysis

Moulds = assay: Preservative action in cosmetic products (Antimicrobial Effectiveness Testing USP 24th Edition), moulds; format: cell-based, Aspergillus niger
From the text: as §1

Yeast = assay: Preservative action in cosmetic products (Antimicrobial Effectiveness Testing USP 24th Edition), yeast; format: cell-based, Candida albicans
From the text: as §1

[3] = Example 10, oil in water emulsion with non-ionic surfactant, 0.2 g/kg, 0 days
[4] = Example 10, oil in water emulsion with non-ionic surfactant, 0.2 g/kg, 7 days
[5] = Example 10, oil in water emulsion with non-ionic surfactant, 0.2 g/kg, 14 days
[6] = Example 12, bath gel, LAE 0.2 g/kg, 0 days
[7] = Example 12, bath gel, LAE 0.2 g/kg, 7 days
[8] = Example 12, bath gel, LAE 0.2 g/kg, 14 days
[9] = Example 15, bath gel, LAE 0.2 g/kg, 0 days
[10] = Example 15, bath gel, LAE 0.2 g/kg, 7 days
[11] = Example 15, bath gel, LAE 0.2 g/kg, 14 days
[12] = Example 17, oil in water emulsion with an ionic emulsifier, 0.20 g of LAE/kg, 0 days
[13] = Example 17, oil in water emulsion with an ionic emulsifier, 0.20 g of LAE/kg, 7 days
[14] = Example 17, oil in water emulsion with an ionic emulsifier, 0.20 g of LAE/kg, 14 days
[15] = Example 19, bath gel, 0.2 g of LAE/kg, 0 days
[16] = Example 19, bath gel, 0.2 g of LAE/kg, 7 days
[17] = Example 19, bath gel, 0.2 g of LAE/kg, 14 days

What does the source list for `CCCCCCCCCCCC(=O)N[C@@H](CCCN=C(N)N)C(=O)OCC.Cl` [LAE, ethyl ester of the lauramide of the arginine monohydrochloride]?
aerobic total count, mean (aerobic total count [1]; day 0, mean of three samples): 2.0 log cfu/g; aerobic total count, mean (aerobic total count [1]; day 15, mean of three samples): 2.0 log cfu/g; aerobic total count, mean (aerobic total count [1]; day 30, mean of three samples): 2.4 log cfu/g; aerobic total count, mean (aerobic total count [1]; day 45, mean of three samples): 2.8 log cfu/g; aerobic total count, mean (aerobic total count [1]; day 60, mean of three samples): 3.4 log cfu/g; aerobic total count, mean (aerobic total count [1]; day 90, mean of three samples): 4.2 log cfu/g; aerobic total count, mean (aerobic total count [2]; 0 hours): 2.0 log cfu/g; aerobic total count, mean (aerobic total count [2]; 4 hours): 2.0 log cfu/g; aerobic total count, mean (aerobic total count [2]; 8 hours): 2.5 log cfu/g; aerobic total count, mean (aerobic total count [2]; 16 hours): 3.8 log cfu/g; Aerobes count (Aerobes; [3]): 6.2 log cfu/g; Aerobes count (Aerobes; [4]): 3.5 log cfu/g; Aerobes count (Aerobes; [5]): 3.0 log cfu/g; Aerobes count (Aerobes; [6]): 6.2 log cfu/g; Aerobes count (Aerobes; [7]): 4.2 log cfu/g; Aerobes count (Aerobes; [8]): 3.0 log cfu/g; Aerobes count (Aerobes; [9]): 6.1 log cfu/g; Aerobes count (Aerobes; [10]): 3.0 log cfu/g; Aerobes count (Aerobes; [11]): 2.6 log cfu/g; Aerobes count (Aerobes; [12]): 6.1 log cfu/g; Aerobes count (Aerobes; [13]): 4.0 log cfu/g; Aerobes count (Aerobes; [14]): 2.9 log cfu/g; Aerobes count (Aerobes; [15]): 6.0 log cfu/g; Aerobes count (Aerobes; [16]): 3.3 log cfu/g; Aerobes count (Aerobes; [17]): 2.9 log cfu/g; Moulds count (Moulds; [3]): 4.3 log cfu/g; Moulds count (Moulds; [4]): <2.0 log cfu/g; Moulds count (Moulds; [5]): <2.0 log cfu/g; Moulds count (Moulds; [6]): 4.5 log cfu/g; Moulds count (Moulds; [7]): 2.3 log cfu/g; Moulds count (Moulds; [8]): <2.0 log cfu/g; Moulds count (Moulds; [9]): 4.1 log cfu/g; Moulds count (Moulds; [10]): <2.0 log cfu/g; Moulds count (Moulds; [11]): <2.0 log cfu/g; Moulds count (Moulds; [12]): 4.1 log cfu/g; Moulds count (Moulds; [13]): 2.9 log cfu/g; Moulds count (Moulds; [14]): <2.0 log cfu/g; Moulds count (Moulds; [15]): 4.1 log cfu/g; Moulds count (Moulds; [16]): 2.0 log cfu/g; Moulds count (Moulds; [17]): <2.0 log cfu/g; Yeast count (Yeast; [3]): 5.6 log cfu/g; Yeast count (Yeast; [4]): 3.4 log cfu/g; Yeast count (Yeast; [5]): 2.6 log cfu/g; Yeast count (Yeast; [6]): 4.3 log cfu/g; Yeast count (Yeast; [7]): 2.8 log cfu/g; Yeast count (Yeast; [8]): <2.0 log cfu/g; Yeast count (Yeast; [9]): 4.3 log cfu/g; Yeast count (Yeast; [10]): 3.3 log cfu/g; Yeast count (Yeast; [11]): 2.6 log cfu/g; Yeast count (Yeast; [12]): 5.3 log cfu/g; Yeast count (Yeast; [13]): 3.8 log cfu/g; Yeast count (Yeast; [14]): 2.5 log cfu/g; Yeast count (Yeast; [15]): 4.5 log cfu/g; Yeast count (Yeast; [16]): 3.5 log cfu/g; Yeast count (Yeast; [17]): 2.3 log cfu/g
